These results are taken from ChEMBL document CHEMBL3351293, “Design, synthesis and in vitro evaluation of novel uni- and bivalent ligands for the cannabinoid receptor type 1 with variation of spacer length and structure” (Bioorg Med Chem Lett, 2014).

Assay [1] concerns the target Cannabinoid receptor 2 (Homo sapiens, UniProt P34972). The assay is described as follows: Displacement of [3H] CP-55,940 from human CB2 receptor expressed in HEK cells at 10 uM after 3 hrs by scintillation counting. It is filed as cell-based. The following applies: for inhibition: HEK293. A general note: Displacement assays read how much labelled ligand stays bound in the presence of the test substance.

Assay [2] deals with T1, Cannabinoid receptor 1 (Homo sapiens, UniProt P21554). Briefly: Inverse agonist activity at human CB1 receptor expressed in Sf9 cells coexpressing Gbeta1gamma2 and RSG4 assessed as degradation of [gamma-33P]GTP after 20 mins by steady-state GTPase assay. The format is cell-based.
Assay [3] concerns the target T1, Cannabinoid receptor 1. The settings on record: Sf9, at 30 µM.
Description: Inverse agonist activity at human CB1 receptor expressed in Sf9 cells coexpressing Gbeta1gamma2 and RSG4 assessed as degradation of [gamma-33P]GTP at 30 uM after 20 mins by steady-state GTPase assay relative to control
The target in assay [4] is T1, Cannabinoid receptor 1. The settings on record: Sf9, 30 uM.
Description: Agonist activity at human CB1 receptor expressed in Sf9 cells coexpressing Gbeta1gamma2 and RSG4 assessed as degradation of [gamma-33P]GTP at 30 uM after 20 mins by steady-state GTPase assay relative to control

T1 sequence (P21554 whole entry): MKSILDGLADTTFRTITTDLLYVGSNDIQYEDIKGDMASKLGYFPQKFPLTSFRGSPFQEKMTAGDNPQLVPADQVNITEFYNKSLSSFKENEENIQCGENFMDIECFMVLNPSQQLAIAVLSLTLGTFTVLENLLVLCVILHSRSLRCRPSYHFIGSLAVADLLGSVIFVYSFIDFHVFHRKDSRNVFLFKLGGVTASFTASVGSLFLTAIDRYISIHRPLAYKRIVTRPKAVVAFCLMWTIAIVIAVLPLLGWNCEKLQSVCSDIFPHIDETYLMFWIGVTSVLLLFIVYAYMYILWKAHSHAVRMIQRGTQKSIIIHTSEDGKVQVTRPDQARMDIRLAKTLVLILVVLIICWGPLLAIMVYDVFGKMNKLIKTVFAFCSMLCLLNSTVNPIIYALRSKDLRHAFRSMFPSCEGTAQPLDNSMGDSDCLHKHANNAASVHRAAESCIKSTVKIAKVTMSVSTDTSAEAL
Cannabinoid receptor 2, sequence (P34972 whole entry): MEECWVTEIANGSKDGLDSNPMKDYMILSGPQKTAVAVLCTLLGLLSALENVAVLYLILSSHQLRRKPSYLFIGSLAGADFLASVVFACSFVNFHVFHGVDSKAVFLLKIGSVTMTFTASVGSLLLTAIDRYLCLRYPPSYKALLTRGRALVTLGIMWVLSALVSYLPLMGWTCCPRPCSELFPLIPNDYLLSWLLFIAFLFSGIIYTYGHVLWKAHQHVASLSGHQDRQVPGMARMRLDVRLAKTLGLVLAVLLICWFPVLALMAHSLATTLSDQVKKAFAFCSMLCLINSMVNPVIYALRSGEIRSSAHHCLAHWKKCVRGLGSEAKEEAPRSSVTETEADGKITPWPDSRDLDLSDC

As for `Cc1c(C(=O)NCCCCNC(=O)c2ccc(C(=O)NCCCCNC(=O)c3nn(-c4ccc(Cl)cc4Cl)c(-c4ccc(Cl)cc4)c3C)cc2)nn(-c2ccc(Cl)cc2Cl)c1-c1ccc(Cl)cc1`, the inhibition (commonly the change of the read-out against control, counted positive when it falls) in assay [1] is 24.3%. In addition, the EC50 – broadly, the concentration at which the effect is half-maximal – in assay [2] amounted to 15 µM. In addition, the Emax (usually the greatest response seen or fitted, relative to the assay's reference) in assay [3] amounted to 50.2%.

On to `Cc1c(C(=O)NCCCCCCCCNC(=O)C2CCCCC2)nn(-c2ccc(Cl)cc2Cl)c1-c1ccc(Cl)cc1`, for which, in assay [1], the inhibition is 20.2%. Besides, the EC50 in assay [2] is 1.1 µM. For the same compound, the maximal effect (Emax) in assay [3] was 78.8%.

Take `Cc1c(C(=O)NCCCCNC(=O)c2cccc(C(=O)NCCCCNC(=O)c3nn(-c4ccc(Cl)cc4Cl)c(-c4ccc(Cl)cc4)c3C)c2)nn(-c2ccc(Cl)cc2Cl)c1-c1ccc(Cl)cc1`: the inhibition in assay [1] came to 0%. Also, the Emax in assay [3] turned out to be 19.5%.

Consider `Cc1c(C(=O)NCCCCCCCCNC(=O)c2ccc(C(=O)NCCCCCCCCNC(=O)c3nn(-c4ccc(Cl)cc4Cl)c(-c4ccc(Cl)cc4)c3C)cc2)nn(-c2ccc(Cl)cc2Cl)c1-c1ccc(Cl)cc1`, for which the inhibition in assay [1] came to 9.7%. Further, the EC50 in assay [2] was 40.7 µM. In addition, the Emax in assay [3] amounted to 29.3%.

Take `Cc1c(C(=O)NCCCCNCc2ccc(CNCCCCNC(=O)c3nn(-c4ccc(Cl)cc4Cl)c(-c4ccc(Cl)cc4)c3C)cc2)nn(-c2ccc(Cl)cc2Cl)c1-c1ccc(Cl)cc1`: in assay [1], affinity was put at a Ki of 2.4 µM and the inhibition is 102%. In addition, in assay [2], the 50% effective concentration (EC50) was determined as 2.95 µM. The compound also registered an Emax in assay [3] of 93.2%.

As to `Cc1c(C(=O)NCCCCNCc2ccccc2)nn(-c2ccc(Cl)cc2Cl)c1-c1ccc(Cl)cc1`, in assay [1], the affinity, expressed as Ki, was 12.7 µM and the inhibition was 85.4%. For the same compound, in assay [2], the EC50 turned out to be 0.661 µM. The compound further came in with an Emax in assay [3] of 92.5%.

For the compound `Cc1c(C(=O)NCCCCCCNC(=O)c2cccc(C(=O)NCCNC(=O)c3nn(-c4ccc(Cl)cc4Cl)c(-c4ccc(Cl)cc4)c3C)c2)nn(-c2ccc(Cl)cc2Cl)c1-c1ccc(Cl)cc1`, the inhibition in assay [1] amounted to 3.2%. Besides, the Emax in assay [3] is 43.6%.

For `Cc1c(C(=O)NCCCCCCCCNC(=O)[C@@H]2CCC[C@H](C(=O)NCCCCCCCCNC(=O)c3nn(-c4ccc(Cl)cc4Cl)c(-c4ccc(Cl)cc4)c3C)C2)nn(-c2ccc(Cl)cc2Cl)c1-c1ccc(Cl)cc1`, the inhibition in assay [1] is 10.3%. The EC50 in assay [2] was 3.16 µM. In addition, the Emax in assay [3] came to 33.6%.

For the compound `Cc1c(C(=O)NCCCCCCCCNC(=O)c2cccc(C(=O)NCCCCCCCCNC(=O)c3nn(-c4ccc(Cl)cc4Cl)c(-c4ccc(Cl)cc4)c3C)c2)nn(-c2ccc(Cl)cc2Cl)c1-c1ccc(Cl)cc1`, the inhibition in assay [1] was found to be 29.1%. In addition, in assay [2], the EC50 was 13.5 µM. The compound further gave an Emax in assay [3] of 59.1%.

As to `Cc1c(C(=O)NCCCCNCc2cccc(CNCCCCNC(=O)c3nn(-c4ccc(Cl)cc4Cl)c(-c4ccc(Cl)cc4)c3C)c2)nn(-c2ccc(Cl)cc2Cl)c1-c1ccc(Cl)cc1`, the inhibition in assay [1] came out at 7%. For the same compound, the EC50 in assay [2] stood at 8.85 µM. Further, the Emax in assay [3] came out at 76.8%.

Turning to `Cc1c(C(=O)NCCCCCCCCNCc2ccccc2)nn(-c2ccc(Cl)cc2Cl)c1-c1ccc(Cl)cc1`, in assay [1], the Ki (as a rule, the dissociation constant of the complex between target and ligand, obtained from inhibition or displacement) is 31 µM; the inhibition amounted to 93.9%. For the same compound, the EC50 in assay [2] came to 0.123 µM. In assay [3], this compound showed an Emax of 93.8%.

As for `Cc1c(C(=O)NCCCCCCCN(CCCCCCCNC(=O)c2nn(-c3ccc(Cl)cc3Cl)c(-c3ccc(Cl)cc3)c2C)Cc2ccccc2)nn(-c2ccc(Cl)cc2Cl)c1-c1ccc(Cl)cc1`, in assay [1], the inhibition was found to be 22.6%. For the same compound, the EC50 in assay [2] came to 3.85 µM. The compound also had an Emax in assay [3] of 67.5%.

As to `Cc1c(C(=O)NCCCCCCCCN)nn(-c2ccc(Cl)cc2Cl)c1-c1ccc(Cl)cc1`, the inhibition in assay [1] was 9.5%. For the same compound, the EC50 in assay [2] was 0.112 µM. This compound also returned an Emax in assay [3] of 92.8%.

Regarding `Cc1c(C(=O)NCCCCCCCCNC(=O)[C@H]2CCCC[C@@H]2C(=O)NCCCCCCCCNC(=O)c2nn(-c3ccc(Cl)cc3Cl)c(-c3ccc(Cl)cc3)c2C)nn(-c2ccc(Cl)cc2Cl)c1-c1ccc(Cl)cc1` (relative stereo), in assay [1], the inhibition was found to be 10.5%. In assay [3], the Emax was 14.3%.

In the case of `Cc1c(C(=O)NCCCCNC(=O)C23CC4CC(C2)CC(C(=O)NCCCCNC(=O)c2nn(-c5ccc(Cl)cc5Cl)c(-c5ccc(Cl)cc5)c2C)(C4)C3)nn(-c2ccc(Cl)cc2Cl)c1-c1ccc(Cl)cc1`, in assay [1], the inhibition came to 15.8%. For the same compound, in assay [2], the EC50 came out at 16.2 µM. In addition, the maximal effect (Emax) in assay [3] was determined as 66.4%.

In assay [4], `CCCCCCC(C)(C)c1ccc([C@@H]2C[C@H](O)CC[C@H]2CCCO)c(O)c1` came in with a maximal response (Emax) of 67.4%.

In the case of `Cc1c(C(=O)NCCCCCCCCNC(=O)[C@H]2CC[C@H](C(=O)NCCCCCCCCNC(=O)c3nn(-c4ccc(Cl)cc4Cl)c(-c4ccc(Cl)cc4)c3C)CC2)nn(-c2ccc(Cl)cc2Cl)c1-c1ccc(Cl)cc1`, the inhibition in assay [1] is 14.5%. In addition, the EC50 in assay [2] came out at 9.55 µM. Further, in assay [3], the Emax worked out at 38.8%.

Regarding `Cc1c(C(=O)NN2CCCCC2)nn(-c2ccc(Cl)cc2Cl)c1-c1ccc(I)cc1`, the Emax in assay [3] worked out at 100%.

Regarding `Cc1c(C(=O)NCCCCNCc2ccc(C(=O)NCCCCNC(=O)c3nn(-c4ccc(Cl)cc4Cl)c(-c4ccc(Cl)cc4)c3C)cc2)nn(-c2ccc(Cl)cc2Cl)c1-c1ccc(Cl)cc1`, in assay [1], the inhibition was found to be 23%. For the same compound, the EC50 in assay [2] was 1.91 µM. Moreover, the Emax in assay [3] stood at 67.4%.

Turning to `Cc1c(C(=O)NCCCCCCCCNC(=O)[C@H]2CC[C@@H](C(=O)NCCCCCCCCNC(=O)c3nn(-c4ccc(Cl)cc4Cl)c(-c4ccc(Cl)cc4)c3C)CC2)nn(-c2ccc(Cl)cc2Cl)c1-c1ccc(Cl)cc1`, the inhibition in assay [1] was found to be 27.3%. The EC50 in assay [2] was determined as 8.71 µM. In addition, the Emax in assay [3] turned out to be 62.4%.

On to `Cc1c(C(=O)NCCCCNC(=O)C2CCCCC2)nn(-c2ccc(Cl)cc2Cl)c1-c1ccc(Cl)cc1`, for which the inhibition in assay [1] amounted to 24.1%. Moreover, the EC50 in assay [2] amounted to 0.11 µM. The same compound displayed an Emax in assay [3] of 91.5%.

Consider `Cc1c(C(=O)NCCCCNC(=O)[C@H]2CC[C@@H](C(=O)NCCCCNC(=O)c3nn(-c4ccc(Cl)cc4Cl)c(-c4ccc(Cl)cc4)c3C)CC2)nn(-c2ccc(Cl)cc2Cl)c1-c1ccc(Cl)cc1`, for which the inhibition in assay [1] stood at 25.9%. Moreover, the EC50 in assay [2] came out at 9.66 µM. Also, in assay [3], the Emax stood at 61.9%.

Turning to `Cc1c(C(=O)NCCCCNC(=O)[C@@H]2CCC[C@H](C(=O)NCCCCNC(=O)c3nn(-c4ccc(Cl)cc4Cl)c(-c4ccc(Cl)cc4)c3C)C2)nn(-c2ccc(Cl)cc2Cl)c1-c1ccc(Cl)cc1`, the inhibition in assay [1] was determined as 19.8%. For the same compound, the EC50 in assay [2] was 24.3 µM. The Emax in assay [3] was 38.2%.

With `Cc1c(C(=O)NCCCCCCCCNC(=O)C23CC4CC(C2)CC(C(=O)NCCCCCCCCNC(=O)c2nn(-c5ccc(Cl)cc5Cl)c(-c5ccc(Cl)cc5)c2C)(C4)C3)nn(-c2ccc(Cl)cc2Cl)c1-c1ccc(Cl)cc1`, the inhibition in assay [1] amounted to 4.1%. Moreover, in assay [2], the EC50 is 7.24 µM. Besides, the maximal effect (Emax) in assay [3] stood at 34.7%.

With `Cc1c(C(=O)NCCCCNCc2cccc(C(=O)NCCCCNC(=O)c3nn(-c4ccc(Cl)cc4Cl)c(-c4ccc(Cl)cc4)c3C)c2)nn(-c2ccc(Cl)cc2Cl)c1-c1ccc(Cl)cc1`, in assay [1], the inhibition came to 15.3%. Further, in assay [2], the EC50 amounted to 1.62 µM. The compound also had an Emax in assay [3] of 78.1%.

Consider `Cc1c(C(=O)NN2CCCCC2)nn(-c2ccc(Cl)cc2Cl)c1-c1ccc(Cl)cc1`, for which, in assay [1], the inhibition stood at 9%.

Turning to `Cc1c(C(=O)NCCCCNC(=O)[C@H]2CCCC[C@@H]2C(=O)NCCCCNC(=O)c2nn(-c3ccc(Cl)cc3Cl)c(-c3ccc(Cl)cc3)c2C)nn(-c2ccc(Cl)cc2Cl)c1-c1ccc(Cl)cc1` (relative stereo), the inhibition in assay [1] was 14.6%. For the same compound, the EC50 in assay [2] was 10.5 µM. Further, the Emax in assay [3] worked out at 58.4%.

Take `Cc1c(C(=O)NCCCCNC(=O)c2ccccc2)nn(-c2ccc(Cl)cc2Cl)c1-c1ccc(Cl)cc1`: in assay [1], the inhibition came to 25.8%. Moreover, the EC50 in assay [2] was found to be 0.776 µM. The compound also registered an Emax in assay [3] of 94%.

Consider `Cc1c(C(=O)NCCCCNC(=O)[C@@H]2CCC[C@@H](C(=O)NCCCCNC(=O)c3nn(-c4ccc(Cl)cc4Cl)c(-c4ccc(Cl)cc4)c3C)C2)nn(-c2ccc(Cl)cc2Cl)c1-c1ccc(Cl)cc1` (relative stereo), for which, in assay [1], the inhibition was determined as 41.1%. In addition, the EC50 in assay [2] came to 8.55 µM. Besides, the Emax in assay [3] is 63%.

Consider `Cc1c(C(=O)NCCCCCCCNCCCCCCCNC(=O)c2nn(-c3ccc(Cl)cc3Cl)c(-c3ccc(Cl)cc3)c2C)nn(-c2ccc(Cl)cc2Cl)c1-c1ccc(Cl)cc1`, for which the inhibition in assay [1] is 34.4%. In addition, the EC50 in assay [2] was determined as 0.871 µM. This compound returned a maximal response (Emax) in assay [3] of 89.2%.

In the case of `Cc1c(C(=O)NCCCCN)nn(-c2ccc(Cl)cc2Cl)c1-c1ccc(Cl)cc1`, in assay [1], the inhibition turned out to be 31.8%. Also, the EC50 in assay [2] came to 2.82 µM. In assay [3], this compound registered an Emax of 86.9%.

Take `Cc1c(C(=O)NCCCCCCCCNC(=O)c2ccccc2)nn(-c2ccc(Cl)cc2Cl)c1-c1ccc(Cl)cc1`: in assay [1], the inhibition is 21.4%. Further, in assay [2], the EC50 worked out at 0.501 µM. This compound gave an Emax in assay [3] of 80.2%.

With `Cc1c(C(=O)NCCCCCCCCNC(=O)[C@@H]2CCC[C@@H](C(=O)NCCCCCCCCNC(=O)c3nn(-c4ccc(Cl)cc4Cl)c(-c4ccc(Cl)cc4)c3C)C2)nn(-c2ccc(Cl)cc2Cl)c1-c1ccc(Cl)cc1`, in assay [1], the inhibition is 18.8%. The EC50 in assay [2] was found to be 7.6 µM. In assay [3], this compound displayed an Emax of 45.5%.

As to `Cc1c(C(=O)NCCCCNC(=O)[C@H]2CC[C@H](C(=O)NCCCCNC(=O)c3nn(-c4ccc(Cl)cc4Cl)c(-c4ccc(Cl)cc4)c3C)CC2)nn(-c2ccc(Cl)cc2Cl)c1-c1ccc(Cl)cc1`, the inhibition in assay [1] was 17.6%.
